# How the values were obtained:
# [1] = Stability in PBS at room temperature via HPLC (UV); format: physicochemical; details: phosphate-buffered saline (DPBS)
# Experimental: (§1) Stability studies were conducted in PBS and acetate buffer utilizing high performance liquid chromatography for potential drug storage considerations. […]
# (§2) All experiments were performed in duplicate and results are presented as the average of two experimental replicates.
# (§3) 1.1 Aqueous Stability in PBS and Acetate Buffer via HPLC
# (§4) Material and Instrumentation
# (§5) HPLC grade acetonitrile (MeCN) […] HPLC grade water (H 2O), and formic acid (FA) were purchased from Fisher Scientific.
# (§6) Puradisc 4 mm PTFE (0.45 μm) syringe filters from Cytiva. Gibco ® Dulbecco’s phosphate-buffered saline (DPBS 1X, no calcium, no magnesium, pH = 7.03) and acetate buffer (pH = 5.0, 10 mM) were purchased directly from Thermo Fisher Scientific and Cytiva, respectively.
# (§7) Aqueous stability experiments were performed on an Agilent 1100 HPLC equipped with an Agilent G1315B diode array detector, an Agilent G1316A heated column compartment, and a Zorbax Eclipse XDB-C18 (4.6 x 150 mm, 5 μm) column.
# (§8) Procedure for Aqueous Stability Experiments
# (§9) Each sample was first weighed out in two separate 2.0 mL vials using an analytical balance.
# (§10) Unless otherwise specified, the test compounds were then dissolved in the aqueous media (PBS or acetate buffer) at a standard concentration of 1 mg/mL. All mixtures were subsequently sonicated for approximately 30 sec. […]
# (§11) min), precipitates observed in sample solutions were filtered with a PTFE syringe filter prior to analysis. Immediately after sample preparation, injection by the HPLC autosampler was performed, which was recorded as the initial time point (t = 0 min). Solutions were then kept in the autosampler at RT and reinjected at designated intervals without additional filtration or sample modification. Remaining prodrug was defined by the area under the curve (AUC) at 254 nm. Aqueous stability was ascertained by calculating the percentage of the parent compound remaining after each time point. Linear regression of the time (x-axis) vs. ln(%remaining) (y-axis) plot afforded the rate constant k (slope = -k). Pseudo first-order half-lives were then calculated by the following equation: t1/2 = 0.693/k.
# [2] = Stability in acetate buffer pH 5.0 at room temperature via HPLC (UV); format: physicochemical
# Experimental: as §1, §2, §3, §4, §5, §6, §7, §8, §9, §10, §11
# [3] = PBS stability assay at 37 °C via LC-MS/MS; format: physicochemical; details: for half-life at 3 µM / remaining at 2 h, 3 µM: phosphate-buffered saline (DPBS); for half-life at 3 µM: pH 7.03, PBS; for half-life at 3 µM / PBS, 37 °C %rem. at 2h (Table S23) / remaining at 2 h, 3 µM: 37 °C; for remaining at 2 h, 3 µM: pH 7.03, read-out: % Remaining @ 2h, PBS, 37 °C (Tables S25, S26)
# [4] = Plasma stability assay at 37 °C via LC-MS/MS, human plasma; format: in vitro ADME; details: for half-life at 3 µM: human, plasma;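 as to all read-outs here: prodrugs at 3 µM incubated in human plasma at 37 °C, intact prodrug quantified by LC-MS/MS over time, values are means of duplicate runs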
# Experimental: To address this, prodrug stability was further evaluated in human plasma at 37 °C using liquid chromatography–tandem mass spectrometry (LC-MS/MS). For direct comparison, a parallel screen was conducted in PBS under identical conditions (Table ). To prevent premature degradation prior to LC-MS/MS analysis, acetonitrile containing formic acid was used as a quenching solution to acidify and stabilize the prodrugs in vials. […] This limitation in detection, along with the need for a more uniform and broadly applicable assessment across all compounds, prompted us to monitor the formation of the parent oxime as an alternative readout.
# Stability experiments in human plasma and PBS were performed via liquid chromatography-tandem mass spectrometry (LC-MS/MS) to determine and compare rate of cleavage of progesterone prodrugs as well as selected allopregnanolone prodrugs (3 µM) when incubated at 37 °C. All experiments were performed in duplicate and results are presented as the average of two experimental replicates.
# [5] = Aqueous solubility by visual inspection in acetate buffer (pH 5); details: sodium acetate buffer
# Experimental: For the solubility assessment, acetate buffer (pH 5) was selected as the media of choice to ensure prodrug stability during analysis.
# High aqueous solubility was determined by visual inspection of 5 mg solid material in 0.5 mL
# sodium acetate buffer solution. This media was selected to ensure stability of prodrugs during
# dissolution in 50 mg/mL aqueous media.
# [6] = pH 7.03, DPBS pH 7.03, RT, 1 mg/mL, HPLC 254 nm, read-out: t1/2 in PBS buffer at RT (Tables S1-S4) (converted)
# [7] = pH 7.03, PBS, rt, HPLC (UV), read-out: Half-life (t½) PBS rt (converted)
# [8] = pH 7.03, PBS, rt, read-out: t½: PBS, rt (Table S23) (converted)
# [9] = pH 5, acetate buffer pH 5.0, RT, 1 mg/mL, HPLC 254 nm, read-out: t1/2 in acetate buffer at RT (Tables S5-S8) (converted)
# [10] = pH 5, acetate buffer pH 5.0, rt, HPLC (UV), read-out: Half-life (t½) pH 5.0 rt (converted)
# [11] = pH 5, acetate buffer pH 5.0, rt, read-out: t½: pH 5.0, rt (Table S23) (converted)
# [12] = 3 µM, LC-MS/MS, read-out: t1/2 in PBS at 37 °C (Tables S14-S17) (converted)
# [13] = LC-MS/MS, read-out: Half-life (t½) PBS 37°C (converted)
# [14] = read-out: PBS, 37 °C t½ (Table S23) (converted)
# [15] = 3 µM, LC-MS/MS, read-out: t1/2 in human plasma at 37 °C (Tables S10-S13, S18) (converted)
# [16] = LC-MS/MS, read-out: Half-life (t½) Plasma 37°C (converted)
# [17] = read-out: Plasma, 37 °C t½ (Table S23) (converted)
# [18] = pH 5, aqueous buffer, thermodynamic from solid
# [19] = read-out: t1/2 (h) PBS, 37 °C (Tables S25, S26) (converted)
Structure (SMILES),"half-life at 1 mg/mL [1, 6]","half-life at 1 mg/mL [1, 7]","half-life at 1 mg/mL [1, 8]","half-life at 1 mg/mL [2, 9]","half-life at 1 mg/mL [2, 10]","half-life at 1 mg/mL [2, 11]","half-life at 3 µM [3, 12]","half-life at 3 µM [3, 13]","half-life at 3 µM [3, 14]","Plasma, 37 °C %rem. at 2h (Table S23) [4]","half-life at 3 µM [4, 15]","half-life at 3 µM [4, 16]","half-life at 3 µM [4, 17]","solubility [5, 18]","half-life at 1 mg/mL ([2]; pH 5, acetate buffer pH 5.0, RT, HPLC 254 nm, read-out: t1/2 in acetate buffer at RT)","Prodrug stability / self-immolation in buffer, in words ([3]; PBS)","PBS, 37 °C %rem. at 2h (Table S23) ([3]; PBS)",solubility ([5]; pH 5),"half-life at 3 µM [3, 19]","remaining at 2 h, 3 µM ([3]; PBS)"
C/C(=N\OC(=O)N(C)C[C@@H]1C[C@H](N(C)C)CN1)[C@H]1CC[C@H]2[C@@H]3CCC4=CC(=O)CC[C@]4(C)[C@H]3CC[C@]12C [20u],7.53 ± 1.3 h,7.53 h,7.53 h,72 h,72 h,72 h,1.08 h,1.08 h,1.08 h,17%,0.74 h,0.73 h,0.74 h,> 10000 µg/mL,–,–,–,–,–,–
C/C(=N\OC(=O)N(CCN(C)C)CCN(C)C)[C@H]1CC[C@H]2[C@@H]3CCC4=CC(=O)CC[C@]4(C)[C@H]3CC[C@]12C [20y],0.017 ± 0.002 h,–,0.02 h,–,–,–,1.87 h,–,1.87 h,84%,8.88 h,–,8.88 h,–,0.1322 ± 0.00117 h,hydrolytic instability,35%,< 10000 µg/mL,–,–
C/C(=N\OC(=O)N(C)C[C@H]1CCCN1)[C@H]1CC[C@H]2[C@@H]3CCC4=CC(=O)CC[C@]4(C)[C@H]3CC[C@]12C.O=C(O)C(F)(F)F [20m],6.15 ± 0.02 h,–,6.15 h,> 168 h,–,> 168 h,0.8 h,–,0.8 h,2%,0.35 h,–,0.35 h,> 10000 µg/mL,–,–,11%,–,–,–
C/C(=N\OC(=O)N(CCO)CCNCCO)[C@H]1CC[C@H]2[C@@H]3CCC4=CC(=O)CC[C@]4(C)[C@H]3CC[C@]12C.Cl [20z],28.8 ± 3.16 h,–,28.8 h,> 168 h,–,> 168 h,6.27 h,–,6.27 h,71%,2.3 h,–,2.3 h,> 10000 µg/mL,–,–,78%,–,–,–
CNCCN(CCn1ccnc1)C(=O)O/N=C(\C)[C@H]1CC[C@H]2[C@@H]3CCC4=CC(=O)CC[C@]4(C)[C@H]3CC[C@]12C [20k],47 ± 2.84 h,–,47 h,> 168 h,–,> 168 h,5.99 h,–,5.99 h,68%,3.16 h,–,3.16 h,> 10000 µg/mL,–,–,70%,–,5.99 h,70%
C/C(=N\OC(=O)N(C)C[C@@H]1CC2(CC2)CN1)[C@H]1CC[C@H]2[C@@H]3CCC4=CC(=O)CC[C@]4(C)[C@H]3CC[C@]12C [20q],4.35 h,4.35 h,4.35 h,> 168 h,> 168 h,> 168 h,0.7 h,0.7 h,0.7 h,15%,0.65 h,0.64 h,0.65 h,> 10000 µg/mL,–,–,5%,–,–,–
CNCCN(C(=O)O/N=C(\C)[C@H]1CC[C@H]2[C@@H]3CCC4=CC(=O)CC[C@]4(C)[C@H]3CC[C@]12C)C(C)C.O=C(O)C(F)(F)F [20c],19.7 ± 0.38 h,19.7 h,19.7 h,> 168 h,> 168 h,> 168 h,3.27 h,3.27 h,3.27 h,47%,1.59 h,1.59 h,1.59 h,> 10000 µg/mL,–,–,53%,–,3.27 h,53%
CNCCN(C(=O)O/N=C(\C)[C@H]1CC[C@H]2[C@@H]3CCC4=CC(=O)CC[C@]4(C)[C@H]3CC[C@]12C)C1CCC1.O=C(O)C(F)(F)F [20d],11.8 ± 0.51 h,11.8 h,11.8 h,> 168 h,> 168 h,> 168 h,2.32 h,2.32 h,2.32 h,59%,2.67 h,2.67 h,2.67 h,> 10000 µg/mL,–,–,44%,–,2.32 h,44%
